{
  "source": "ChEMBL document CHEMBL1201862",
  "about": "“PubChem BioAssay data set” (2004)",
  "key": {"[1]": {"assay": "inhibitors of firefly luciferase expression or activity, dose response, H4 neuroglioma cells, luminescence (AID 1990)", "assay_type": "functional, cell-based"}, "[2]": {"target": "Luciferin 4-monooxygenase (Photinus pyralis, UniProt P08659)", "sequence (P08659 whole entry)": "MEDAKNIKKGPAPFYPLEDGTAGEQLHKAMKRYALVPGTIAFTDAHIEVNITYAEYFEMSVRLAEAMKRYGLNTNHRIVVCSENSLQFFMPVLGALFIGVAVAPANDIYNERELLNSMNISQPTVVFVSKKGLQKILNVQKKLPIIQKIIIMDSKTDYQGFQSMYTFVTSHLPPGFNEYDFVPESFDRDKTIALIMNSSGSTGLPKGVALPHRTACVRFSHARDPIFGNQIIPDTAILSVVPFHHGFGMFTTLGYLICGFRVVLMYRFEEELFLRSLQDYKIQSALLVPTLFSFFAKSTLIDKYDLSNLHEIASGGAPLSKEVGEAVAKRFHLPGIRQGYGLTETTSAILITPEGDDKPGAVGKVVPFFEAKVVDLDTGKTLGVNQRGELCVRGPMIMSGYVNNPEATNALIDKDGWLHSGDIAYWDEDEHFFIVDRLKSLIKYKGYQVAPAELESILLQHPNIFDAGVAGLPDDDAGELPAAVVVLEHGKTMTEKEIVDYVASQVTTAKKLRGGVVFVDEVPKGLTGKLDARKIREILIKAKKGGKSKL", "assay": "Counter Screen for Luciferase-based Assay Positives. [Related pubchem assays: 620, 618, 411 ]"}, "[3]": {"assay": "luciferase reporter signal reduction – luminescence, H4-C neuroglioblastoma cells, dose response (AID 2458);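 also: H4 neuroglioblastoma cells stably carrying a luciferase reporter gene fusion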", "assay_type": "functional, cell-based"}, "[4]": {"target": "Glyceraldehyde-3-phosphate dehydrogenase (Homo sapiens, UniProt P04406)", "sequence (P04406 whole entry)": "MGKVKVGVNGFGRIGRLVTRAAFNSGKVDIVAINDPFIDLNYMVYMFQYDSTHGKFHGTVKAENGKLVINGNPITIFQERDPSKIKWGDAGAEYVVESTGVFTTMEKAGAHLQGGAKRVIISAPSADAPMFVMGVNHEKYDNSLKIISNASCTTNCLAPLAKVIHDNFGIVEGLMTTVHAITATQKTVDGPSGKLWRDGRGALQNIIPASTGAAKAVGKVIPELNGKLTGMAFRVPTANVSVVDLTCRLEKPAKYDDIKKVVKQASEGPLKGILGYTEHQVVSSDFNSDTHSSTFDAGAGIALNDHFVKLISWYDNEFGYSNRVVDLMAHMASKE"}, "[5]": {"assay": "inhibitors of SNCA 5'UTR-driven translation, confirmation, luminescence, H4 neuroglioblastoma cells, dose confirmation (AID 2454);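 also: H4 neuroglioblastoma cells carrying an alpha-synuclein 5'UTR luciferase reporter; potency for inhibition of the luciferase signal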", "assay_type": "functional, cell-based"}, "[6]": {"assay": "Luminescence Cell-Based Dose Response HTS to Identify Inhibitors of 5'UTR Stem-Loop Driven Prion Protein mRNA Translation in H4 Neuroglioblastoma Cells. [Related pubchem assays: 1827 (Project Summary), 1813 (Primary HTS)]", "assay_type": "functional"}, "cells": {"assay": "cells", "assay_type": "functional, cell-based"}, "[7]": {"assay": "inhibitors of SNCA 5'UTR-driven reporter translation, confirmation, H4 neuroglioma cells, luminescence (AID 1988)", "assay_type": "functional, cell-based"}, "HT-1080": {"system": "HT-1080", "assay": "cytotoxicity in HT1080 fibrosarcoma cells, cell-based, fluorescence readout (AID 620)", "assay_type": "functional", "conditions": "Homo sapiens"}, "[8]": {"assay": "HepG2 cell cytotoxicity, dose response, cytotoxicity control for Shn3 inhibitor project, CellTiter-Glo, cherry-picked (AID 624134)", "assay_type": "functional, cell-based"}, "[9]": {"assay": "reduction of Shn3 3'UTR firefly luciferase signal, dose response, Schnurri-3 inhibitor project, cell-based, Clone20 osteoblasts, cherry-pick, set 2 (AID 720490);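 also: actives lower the luminescence signal as inhibitors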", "assay_type": "functional"}, "BJ [10]": {"system": "BJ", "assay": "cytotoxicity toward BJ-TERT fibroblasts, dose response, cell-based, RAS-independent, luminescence (AID 1933)", "assay_type": "functional", "conditions": "Homo sapiens"}, "BJ [11]": {"system": "BJ", "assay": "cells", "assay_type": "functional, cell-based", "conditions": "Homo sapiens"}, "BJ [12]": {"system": "BJ", "assay": "cytotoxicity toward BJ-TERT-LT-ST fibroblasts, dose response, cell-based, RAS-independent, luminescence (AID 1935);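 also: BJ fibroblasts immortalized with TERT plus LT and ST oncogenes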", "assay_type": "functional", "conditions": "Homo sapiens"}, "[13]": {"assay": "Shn3 3'UTR reporter inhibitors, dose response, cell-based, Clone20 osteoblasts, firefly luciferase, cherry-picked (AID 624132)", "assay_type": "functional"}, "[14]": {"assay": "cytotoxicity toward DRD oncogenic fibroblasts, dose response, cell-based, non-viral oncogenic, luminescence (AID 1934)", "assay_type": "functional", "conditions": "Homo sapiens"}, "Cytochrome P450 3A4": {"target": "Cytochrome P450 3A4 (Homo sapiens, UniProt P08684)", "sequence (P08684 whole entry)": "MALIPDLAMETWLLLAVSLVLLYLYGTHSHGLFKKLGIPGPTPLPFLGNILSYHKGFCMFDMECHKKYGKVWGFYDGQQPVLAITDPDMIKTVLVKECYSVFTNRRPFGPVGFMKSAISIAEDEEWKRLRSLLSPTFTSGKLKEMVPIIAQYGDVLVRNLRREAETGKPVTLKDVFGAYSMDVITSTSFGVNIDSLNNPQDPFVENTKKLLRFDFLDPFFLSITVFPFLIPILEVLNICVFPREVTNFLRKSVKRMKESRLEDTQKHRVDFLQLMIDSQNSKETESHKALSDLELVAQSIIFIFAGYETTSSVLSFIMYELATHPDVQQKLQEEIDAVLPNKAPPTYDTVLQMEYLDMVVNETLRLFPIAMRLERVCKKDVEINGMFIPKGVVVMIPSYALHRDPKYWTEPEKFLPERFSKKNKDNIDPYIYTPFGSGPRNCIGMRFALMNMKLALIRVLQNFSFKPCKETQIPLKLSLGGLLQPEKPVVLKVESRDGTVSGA", "conditions": "Potency"}, "[15]": {"assay": "cytotoxicity in HEK-293T cells, dose response, cytotoxicity control for BCR NF-kB inhibitor project, luminescence, B-cell screen hits (AID 489021);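 also: cells exposed to compound for about 14 hours before viability readout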", "assay_type": "functional, cell-based"}, "HeLa": {"system": "HeLa", "assay": "Cytotoxicity counterscreen assay for transcriptional activators of heat shock protein 70 (Hsp70). [Related pubchem assays: 1203, 1252 ]", "assay_type": "functional", "conditions": "Homo sapiens"}, "[16]": {"assay": "A Cell Based Secondary Assay To Explore Cytotoxicity of Compounds that Sensitize Mycobacterium Tuberculosis to Beta-Lactam Antibiotics.", "assay_type": "functional"}, "[17]": {"target": "T1, Calpain-2 catalytic subunit (Sus scrofa, UniProt P43367)", "T1 sequence (P43367 whole entry)": "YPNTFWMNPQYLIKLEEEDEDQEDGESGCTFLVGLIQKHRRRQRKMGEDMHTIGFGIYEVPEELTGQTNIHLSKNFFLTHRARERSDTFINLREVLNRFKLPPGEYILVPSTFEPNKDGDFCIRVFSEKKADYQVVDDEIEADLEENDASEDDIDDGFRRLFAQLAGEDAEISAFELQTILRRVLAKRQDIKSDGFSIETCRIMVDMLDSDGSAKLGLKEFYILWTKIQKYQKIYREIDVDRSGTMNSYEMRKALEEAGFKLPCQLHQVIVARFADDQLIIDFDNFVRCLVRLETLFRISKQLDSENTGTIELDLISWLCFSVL", "assay": "pig calpain II inhibitor potency, dose response, biochemical, fluorogenic peptide substrate (AID 1420)", "assay_type": "functional"}},
  "note": "Activity calls are given as the source filed them. Rule as the data show it, for most assays here: actives have a measured EC50 and inactives only a lower limit.",
  "data": [
    {"compound": "CCOC(=O)C1CCCCN1C(=O)CCc1c(C)nc2cc(-c3ccccc3)nn2c1C", "note": "(stereo not drawn)", "values": [
      {"measurement": "EC50", "setting": "[1]", "result": "< 0.1 µM (active)"},
      {"measurement": "EC50", "setting": "[2]", "result": "> 100 µM (not active)"},
      {"measurement": "EC50", "setting": "[3]", "result": "0.972 µM (active)"},
      {"measurement": "IC50", "setting": "[4]", "result": "> 100 µM (not active)"},
      {"measurement": "EC50", "setting": "[5]", "result": "1.33 µM (active)"},
      {"measurement": "EC50", "setting": "[6]", "result": "11.1 µM (active)"},
      {"measurement": "EC50", "setting": "cells", "result": "> 12 µM (not active)"},
      {"measurement": "EC50", "setting": "[7]", "result": "< 0.1 µM (active)"},
      {"measurement": "EC50", "setting": "HT-1080", "result": "> 50 µM (not active)"}
    ]},
    {"compound": "COc1ccc(OCc2cccc(C(=O)O)c2)cc1", "values": [
      {"measurement": "AC50", "setting": "[8]", "result": "> 70 µM (inactive)"},
      {"measurement": "EC50", "setting": "[1]", "result": "0.305 µM (active)"},
      {"measurement": "AC50", "setting": "[9]", "result": "2.01 µM (active)"},
      {"measurement": "EC50", "setting": "[3]", "result": "0.26 µM (active)"},
      {"measurement": "EC50", "setting": "BJ [10]", "result": "18.8 µM (active)"},
      {"measurement": "EC50", "setting": "BJ [11]", "result": "8.86 µM (active)"},
      {"measurement": "EC50", "setting": "[5]", "result": "0.267 µM (active)"},
      {"measurement": "EC50", "setting": "BJ [12]", "result": "> 150 µM (inconclusive)"},
      {"measurement": "AC50", "setting": "[13]", "result": "1.39 µM (active)"},
      {"measurement": "EC50", "setting": "[6]", "result": "0.121 µM (active)"},
      {"measurement": "EC50", "setting": "[14]", "result": "9.09 µM (inconclusive)"},
      {"measurement": "EC50", "setting": "cells", "result": "0.307 µM (active)"},
      {"measurement": "EC50", "setting": "[7]", "result": "< 0.1 µM (active)"}
    ]},
    {"compound": "Nc1cc(=O)[nH]c(=O)n1CC1CC1", "values": [
      {"measurement": "AC50", "setting": "Cytochrome P450 3A4", "result": "3.98 µM (inconclusive)"}
    ]},
    {"compound": "COc1ccc(N=C(S)NCc2ccccc2)c(OC)c1", "values": [
      {"measurement": "IC50", "setting": "[15]", "result": "> 80 µM (inactive)"}
    ]},
    {"compound": "COCCn1c(C)cc(C(=O)CSc2nc3ccccc3c(=O)n2C(C)COC)c1C", "note": "(stereo not drawn)", "values": [
      {"measurement": "CC50", "setting": "HeLa", "result": "> 99 µM (not active)"}
    ]},
    {"compound": "CCc1ccc2c(c1)C(c1ccc([N+](=O)[O-])cc1)=NNC(c1ccc(C)cc1)=N2", "values": [
      {"measurement": "CC50", "setting": "[16]", "result": "> 40 µM (active)"},
      {"measurement": "IC50", "setting": "[17]", "result": "15.6 µM (not active)"}
    ]},
    {"compound": "CCOc1cc(N2CCOCC2)c(OCC)cc1NC(=O)COc1cccc(CC)c1", "values": [
      {"measurement": "CC50", "setting": "[16]", "result": "> 40 µM (active)"}
    ]}
  ]
}
